Values quoted from earlier work as cited in patent US20130136780A1, “CROSSLINKED POLYSACCHARIDE GEL COMPOSITIONS FOR MEDICAL AND COSMETIC APPLICATIONS” (ALLERGAN, INC., priority 2007, published 2013).

Conditions: osteoarthritis patient, intra-articular injection of 40 mg; Selvi et al. 2004

CC(C)(C)CC(=O)OCC(=O)[C@@]12OC(C)(C)O[C@@H]1C[C@H]1[C@@H]3CCC4=CC(=O)C=C[C@]4(C)[C@@]3(F)[C@@H](O)C[C@@]12C [triamcinolone hexacetonide]
adverse outcome after intra-articular injection (case report): developed acute arthritis induced by the injected triamcinolone crystals
